In PMC9727064, “Performance assessment and economic analysis of a human Liver-Chip for predictive toxicology” (Communications Medicine, 2022):

Experiments:
[1] = system: human Liver-Chip (primary human hepatocytes); assay: Liver-Chip albumin production in top channel effluent (ELISA); format: cell-based
Text: Cycles 1 to 4 tested 6–8 concentrations in duplicate for each of 10–13 drugs. To determine which sampling strategy was optimal for cycles 1 to 4 (16 doses × 1 replicate, 8 × 2, 5 × 3, or 4 × 4), we generated three different “dose-response” synthetic datasets, each distorted by different noise levels (low, medium, or high). For each of these datasets, we performed curve-fitting analyses and calculated the Root Mean Square Error between the “true” and estimated IC50 parameter. […] Some drugs were also repeated across cycles (on different donors or at different concentrations) to ensure experimental robustness. However, to replicate a more typical study design likely to be carried out by scientists in the pharmaceutical industry, we created cycle 5 with 6 drugs, where each was tested in 4 concentrations in triplicate. For each cycle, chips were dosed with drug over 8 days (referred to as Day 0 through Day 7).
The drug dosing concentrations were determined from the unbound human Cmax of each drug. First, the expected fraction of drug unbound in media with 2% FBS was extrapolated from plasma binding data for each drug. Dosing concentrations were then back calculated such that the unbound fraction in media would reflect relevant multiples of unbound human Cmax (Supplementary Data 1).
On the first dosing day (Day 0), all chips were imaged using the ECHO microscope. Five hundred microliters of effluent was collected from all four reservoirs of the pod and placed in a labeled 96-well plate. After collection, all the remaining media was carefully aspirated before dosing with 3.8 mL of corresponding dosing solution. Dosing occurred on study days 0, 2, and 4 for chips flowing at 30 µL/h, and on days 0, 1, 2, 3, 4, 5, and 6 for chips flowing at 150 µL/h. Effluent collection occurred on days 1, 3, and 7.
Top channel outlet effluents were analyzed to quantify albumin and alanine transaminase (ALT) levels on days 1, 3, and 7 using sandwich ELISA kits (Abcam, Albumin ab179887, ALT ab234578) according to vendor-provided protocols. Frozen (−80 °C) effluent samples were thawed overnight at 4 °C prior to assay. The Hamilton Vantage liquid handling platform was used to manage effluent dilutions (1:500 for albumin, neat for ALT), preparation of standard curves, and addition of antibody cocktail. Absorbance at 450 nm was measured using the SynergyNeo Microplate Reader (BioTek).
All statistical analyses were conducted in R[21] (version 4.1.2) and figures were produced using the R package ggplot2[22] (version 3.3.5). The dose-response analysis (Fig. 4) was carried out using the popular drc R package developed by Ritz et al.[23] using the generalized log-logistic dose-response model. The error bars in Figs. 3 and 4, correspond to the standard errors of the mean. The circles in Fig. 3 correspond to the samples used to calculate the corresponding statistics. The analysis of significance in Fig. 3 was performed using paired t-test across different days (same donor) and unpaired t-test across different donors (same day). In Fig. 3 the number of samples used were n = 3 for donor two, and n = 4 for donor three. For both donors, the number of the freshly thawed hepatocyte samples used to estimate the corresponding log2(Fold Change) were n = 4. Finally, the analysis of significance in Fig. 3 was performed using paired t-test.

[2] = system: human Liver-Chip (hepatocyte layer); assay: Liver-Chip immunofluorescence imaging (caspase 3/7, TMRM, AdipoRed/LipidTOX); format: cell-based; settings: for Immunofluorescent findings, donor one (Supplementary Figure 3) / Immunofluorescent findings, donor three (Supplementary Figure 3) / Immunofluorescent findings, donor two (Supplementary Figure 3): day 7 post-drug administration, hepatocyte layer, top channel; for Immunofluorescence staining result in words: caspase 3/7 (apoptosis) or TMRM (mitotoxicity), 7 days
Procedure: Chips were detached from pods and washed once with PBS. […] Afterwards, chips were washed with PBS and stored at 4 °C until staining. Following fixation, chips corresponding to low, medium, and high concentrations from each group were cut in half with a razor blade perpendicular to the co-culture channels. One half was used in the following staining protocol, while the other half was stored for future staining. All stains and washes utilized the bubble method, in which a small amount of air is flowed through the channel prior to bulk wash media to prevent a liquid-liquid dilution of the staining solution. […] Following 15 minutes of incubation at room temperature, each channel was washed with 200 µL of PBS (alternating channels, 2× for top and 3× for bottom). As an alternative lipid accumulation marker, 100 µL of HCS LipidTOX Deep Red (ThermoFisher, H34477) was diluted 1:1000 v/v in PBS with NucBlue counterstain and added to the top channel. After a 30 min incubation at room temperature, the chips were again allowed to reach room temperature before the channels were alternatively washed with 200 µL of PBS, the bottom channel undergoing three washes and the top channel undergoing two. Chips were then imaged using the Opera Phenix. Following lipid and DAPI staining and imaging, chips were stained with a […] (MRP2) antibody to visualize the bile canalicular structures characteristic of healthy Liver-Chips. […] Then, each channel was washed with 200 µL of PBS (alternating channels, 2× for top and 3× for bottom). […] Next, primary antibody Mouse anti-MRP2 (Abcam, ab3373) was prepared 1:100 in the original blocking buffer, diluted 1:4 in PBS. 100 µL of solution was added to each channel, and chips were stored overnight at 4 °C. The following day, each channel was washed with 200 µL of PBS (alternating channels, 2× for top and 3× for bottom). […] 100 µL of solution was added to each channel and chips incubated at room temperature, protected from light, for two hours. Then, each channel was washed with 200 µL of PBS (alternating channels, 2× for top and 3× for bottom). Chips were imaged immediately or stored at 4 °C until ready for imaging on the Opera Phenix. Chip replicates designated for live cell imaging were washed with PBS utilizing the bubble method. Chips were then cut in half perpendicular to the co-culture channels. […] The bottom chips halves were stained with NucBlue (Thermo) to visualize nuclei and Tetramethylrhodamine, methyl ester (TMRM) (ThermoFisher, I34361) to visualize active mitochondria. This staining panel was prepared in PBS with 5% FBS, with NucBlue at 2 drops per mL and TMRM at a 1:1000 ratio in original blocking buffer, diluted 1:4 in PBS. Chips were incubated in the dark at 37 °C for 30 min, and then each channel was washed with 200 µL of PBS (alternating channels, 2× for top and 3× for bottom). The chips were kept at 37 °C, protected from light, until ready for imaging with the Opera Phenix. Fluorescent confocal image acquisition was performed using the Opera Phenix High-Content Screening System and Harmony 4.9 Imaging and Analysis Software (PerkinElmer). Before acquisition, the Phenix internal environment was set to 37 °C and 5% CO2. […] Whole chips were placed directly into each slot, while top and bottom half chips were matched and combined in one chip slot. Chips were aligned flush with the adapter and one another. Any bubbles identified from visual inspection were washed out with PBS. Once ready, the stained chips were covered with transparent plate film to seal channel ports and loaded into the Phenix. […] Z-stacks were generated with 3.6 µm between slices for 28–32 planes so that the epithelium was located around the center of the stack. […] Raw images from fixed and live imaging were exported in TIFF format from the Harmony software. Using scripts written for FIJI (ImageJ), TIFFs across three color channels and multiple z-stacks were compiled into composite images for each field of view in each chip. […]

[3] = concentration causing a 50% reduction in albumin production
[4] = expanded drug list, lowest multiplier causing a 50% reduction in albumin production

Compound | Albumin IC50 Donor 1 [1, 3] | Albumin IC50 Donor 2 [1, 3] | Immunofluorescent findings, donor one (Supplementary Figure 3) [2] | IF imaging Donor 1 ([2]; matched pair analysis) | IF imaging Donor 2 ([2]; matched pair analysis) | IF imaging Donor 1 ([2]; expanded drug list) | Immunofluorescent findings, donor two (Supplementary Figure 3) [2] | further results
COC(c1ccccc1)(c1ccccc1)[C@H](Oc1nc(C)cc(C)n1)C(=O)O [Ambrisentan] | >300 multiples of the unbound human Cmax | >1000 multiples of the unbound human Cmax | No findings | No findings | No findings |  |  | Albumin IC50 Donor 3 [1, 3]: >300 multiples of the unbound human Cmax; Immunofluorescent findings, donor three (Supplementary Figure 3) [2]: No findings; IF imaging Donor 3 ([2]; matched pair analysis): No findings
C=C[C@@H]1C[C@]1(NC(=O)[C@@H]1C[C@@H](Oc2ncc(OC)c3ccc(Cl)cc23)CN1C(=O)[C@@H](NC(=O)OC(C)(C)C)C(C)(C)C)C(=O)NS(=O)(=O)C1CC1 [Asunaprevir] |  |  |  |  |  | Apoptosis |  | Albumin change in words ([1]; Liver-Chip effluent): concentration and time-dependent changes; Immunofluorescence staining result in words [2]: apoptosis-mediated cell death
CC(C(=O)O)c1ccc2oc(-c3ccc(Cl)cc3)nc2c1 (stereo not drawn) [Benoxaprofen] |  |  |  |  |  | Apoptosis | Apoptosis | IF imaging Donor 2 ([2]; expanded drug list): Apoptosis
CCN(CC)C(=O)/C(C#N)=C/c1cc(O)c(O)c([N+](=O)[O-])c1 [Entacapone] | >300 multiples of the unbound human Cmax |  | No findings | No findings |  |  |  | 
O=c1[nH]c(=O)n([C@@H]2O[C@H](CO)[C@@H](O)[C@@H]2F)cc1I [FIRU] | >300 multiples of the unbound human Cmax | >300 multiples of the unbound human Cmax | No findings | No findings | Steatosis |  |  | 
O=c1[nH]c(=O)n([C@@H]2O[C@H](CO)[C@@H](O)[C@@H]2F)cc1I [Fialuridine] | <0.1 multiples of the unbound human Cmax | <1 multiples of the unbound human Cmax | No findings | No findings | Steatosis |  | Steatosis | 
CC(CCc1ccccc1)NCC(O)c1ccc(O)c(C(N)=O)c1 (stereo not drawn) [Labetalol] |  |  | Apoptosis |  |  | Apoptosis | Apoptosis | Albumin IC50 Donor 1 [1, 4]: 26 unbound human Cmax multiplier; Albumin IC50 Donor 2 [1, 4]: 40 unbound human Cmax multiplier; IF imaging Donor 2 ([2]; expanded drug list): Apoptosis
C[C@H]1COc2c(N3CCN(C)CC3)c(F)cc3c(=O)c(C(=O)O)cn1c23 [Levofloxacin] | >15 multiples of the unbound human Cmax | >45 multiples of the unbound human Cmax | No findings | No findings | No findings |  |  | Albumin IC50 Donor 3 [1, 3]: >45 multiples of the unbound human Cmax; Immunofluorescence staining result in words [2]: did not cause cellular apoptosis; Immunofluorescent findings, donor three (Supplementary Figure 3) [2]: No findings; IF imaging Donor 3 ([2]; matched pair analysis): No findings
O=C(NC1CCN(CCCCC2(C(=O)NCC(F)(F)F)c3ccccc3-c3ccccc32)CC1)c1ccccc1-c1ccc(C(F)(F)F)cc1 [Lomitapide] |  |  | No findings |  |  | No findings |  | Albumin IC50 Donor 1 [1, 4]: 4 unbound human Cmax multiplier
CCc1nn(CCCN2CCN(c3cccc(Cl)c3)CC2)c(=O)n1CCOc1ccccc1 [Nefazodone] | 140 multiples of the unbound human Cmax |  | No findings | No findings |  |  |  | 
Cc1cc2c(s1)Nc1ccccc1N=C2N1CCN(C)CC1 [Olanzapine] |  |  | Apoptosis | Apoptosis | No findings |  |  | Immunofluorescent findings, donor three (Supplementary Figure 3) [2]: No findings; IF imaging Donor 3 ([2]; matched pair analysis): No findings
CCc1ccc(CCOc2ccc(CC3SC(=O)NC3=O)cc2)nc1 (stereo not drawn) [Pioglitazone] | 277 multiples of the unbound human Cmax | >300 multiples of the unbound human Cmax | Apoptosis | Apoptosis | No findings |  | No findings | 
